PubChem BioAssay (NCI)
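Results reflect a 48-hour exposure of cells in 96-well plates to compound at five concentrations. TGI is the concentration that stops growth completely.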

Experiments:
Assay in all cases: DTP human tumour cell line panel, 48 h
[1] = test system: UACC-62 melanoma
[2] = test system: M14 melanoma
[3] = test system: EKVX NSCLC
[4] = test system: HT29 colon
[5] = test system: OVCAR-8 ovarian
[6] = test system: OVCAR-5 ovarian
[7] = test system: HCC-2998 colon
[8] = test system: CCRF-CEM leukemia
[9] = test system: SK-OV-3 ovarian
[10] = test system: PC-3 prostate
[11] = test system: SF-295 CNS
[12] = test system: U251 CNS
[13] = test system: TK-10 renal
[14] = test system: HCT-15 colon
[15] = test system: MDA-MB-435
[16] = test system: NCI-H460 lung
[17] = test system: HS 578T breast
[18] = test system: MOLT-4 leukemia
[19] = test system: HCT-116 colon
[20] = test system: DU-145 prostate
[21] = test system: CAKI-1 renal
[22] = test system: UO-31 renal
[23] = test system: SF-268 CNS
[24] = test system: HOP-62 NSCLC
[25] = test system: MDA-MB-231 breast
[26] = test system: MDA-N
[27] = test system: K-562 leukemia
[28] = test system: BT-549 breast
[29] = test system: OVCAR-4 ovarian
[30] = test system: SK-MEL-2 melanoma
[31] = test system: OVCAR-3 ovarian
[32] = test system: MALME-3M melanoma
[33] = test system: SR leukemia
[34] = test system: ACHN renal
[35] = test system: NCI/ADR-RES ovarian
[36] = test system: NCI-H23 lung
[37] = test system: COLO 205 colon
[38] = test system: RPMI-8226 leukemia
[39] = test system: HOP-92 NSCLC
[40] = test system: SF-539 CNS
[41] = test system: LOX IMVI melanoma
[42] = test system: SN12C renal
[43] = test system: SW-620 colon
[44] = test system: NCI-H226 lung
[45] = test system: SK-MEL-28 melanoma
[46] = test system: SNB-19 CNS
[47] = test system: UACC-257 melanoma
[48] = test system: A498 renal
[49] = test system: A549 NSCLC
[50] = test system: HL-60(TB) leukemia
[51] = test system: NCI-H522 lung
[52] = test system: IGROV1 ovarian
[53] = test system: T-47D breast
[54] = test system: SK-MEL-5 melanoma
[55] = test system: KM12 colon
[56] = test system: 786-0 renal
[57] = test system: SNB-75 CNS
[58] = test system: RXF 393 renal
[59] = test system: MCF7 breast

CC(=O)O[C@H]1CC[C@]2(C=O)[C@H]3CC[C@]4(C)[C@@H](C5=CC(=O)OC5)CC[C@]4(O)[C@@H]3CC[C@]2(O)C1
TGI [1]: 1.1 µM
TGI [2]: 1.22 µM
TGI [3]: 0.615 µM
TGI [4]: 1.05 µM
TGI [5]: 1.01 µM
TGI [6]: 1.87 µM
TGI [7]: 1.33 µM
TGI [8]: > 31.6 µM
TGI [9]: 0.802 µM
TGI [10]: 1.38 µM
TGI [11]: 0.853 µM
TGI [12]: 0.559 µM
TGI [13]: 0.93 µM
TGI [14]: 0.455 µM
TGI [15]: 0.984 µM
TGI [16]: 0.274 µM
TGI [17]: > 100 µM
TGI [18]: 0.0798 µM
TGI [19]: 0.5 µM
TGI [20]: 0.391 µM
TGI [21]: 0.06 µM
TGI [22]: 1.48 µM
TGI [23]: 0.806 µM
TGI [24]: 0.833 µM
TGI [25]: 3.14 µM
TGI [26]: 0.97 µM
TGI [27]: > 100 µM
TGI [28]: 0.575 µM
TGI [29]: 0.35 µM
TGI [30]: 1.08 µM
TGI [31]: 0.622 µM
TGI [32]: 0.566 µM
TGI [33]: > 100 µM
TGI [34]: 0.557 µM
TGI [35]: 0.467 µM
TGI [36]: 0.373 µM
TGI [37]: 1.64 µM
TGI [38]: 3.21 µM
TGI [39]: 2.76 µM
TGI [40]: 0.26 µM
TGI [41]: 0.933 µM
TGI [42]: 1.53 µM
TGI [43]: 4.85 µM
TGI [44]: 1.97 µM
TGI [45]: 3.22 µM
TGI [46]: 2.24 µM
TGI [47]: 1.63 µM
TGI [48]: 1.16 µM
TGI [49]: 0.253 µM
TGI [50]: 5.18 µM
TGI [51]: 0.357 µM
TGI [52]: 3.99 µM
TGI [53]: 2.68 µM
TGI [54]: 0.473 µM

COc1cc(OC)cc(-c2nc3ccccc3c(=O)[nH]2)c1
TGI [1]: > 100 µM
TGI [2]: > 100 µM
TGI [3]: > 100 µM
TGI [4]: > 100 µM
TGI [5]: 63.8 µM
TGI [6]: > 100 µM
TGI [7]: > 100 µM
TGI [8]: > 100 µM
TGI [9]: 62.8 µM
TGI [10]: > 100 µM
TGI [11]: > 100 µM
TGI [12]: > 100 µM
TGI [13]: > 100 µM
TGI [14]: > 100 µM
TGI [15]: > 100 µM
TGI [16]: > 100 µM
TGI [17]: > 100 µM
TGI [18]: > 100 µM
TGI [19]: > 100 µM
TGI [20]: > 100 µM
TGI [21]: > 100 µM
TGI [22]: > 100 µM
TGI [23]: > 100 µM
TGI [24]: > 100 µM
TGI [25]: > 100 µM
TGI [26]: > 100 µM
TGI [27]: > 100 µM
TGI [28]: > 100 µM
TGI [55]: > 100 µM
TGI [29]: > 100 µM
TGI [30]: > 100 µM
TGI [31]: > 100 µM
TGI [32]: > 100 µM
TGI [56]: 66.2 µM
TGI [34]: > 100 µM
TGI [35]: > 100 µM
TGI [36]: > 100 µM
TGI [37]: > 100 µM
TGI [38]: > 100 µM
TGI [39]: > 100 µM
TGI [57]: 58.3 µM
TGI [41]: > 100 µM
TGI [42]: > 100 µM
TGI [43]: > 100 µM
TGI [44]: > 100 µM
TGI [45]: > 100 µM
TGI [46]: > 100 µM
TGI [47]: > 100 µM
TGI [48]: 82.2 µM
TGI [49]: > 100 µM
TGI [50]: > 100 µM
TGI [52]: > 100 µM
TGI [53]: > 100 µM
TGI [58]: > 100 µM
TGI [54]: > 100 µM

CCOC(=O)c1sc2[n+](c1C)C(=O)/C(=C/c1ccccc1Cl)S2
TGI [1]: 19.3 µM
TGI [2]: > 43.1 µM
TGI [3]: > 100 µM
TGI [4]: 28.9 µM
TGI [5]: 35 µM
TGI [6]: > 62 µM
TGI [8]: > 72.8 µM
TGI [9]: > 69.2 µM
TGI [10]: > 85.6 µM
TGI [11]: 4.75 µM
TGI [12]: 24.4 µM
TGI [13]: 57 µM
TGI [14]: 12.9 µM
TGI [15]: > 100 µM
TGI [16]: 6.44 µM
TGI [17]: > 73.3 µM
TGI [18]: 15 µM
TGI [19]: > 48 µM
TGI [20]: > 35.6 µM
TGI [21]: 24.5 µM
TGI [22]: 25 µM
TGI [23]: > 53.5 µM
TGI [24]: 60.9 µM
TGI [59]: 15 µM
TGI [25]: > 27.8 µM
TGI [26]: 0.565 µM
TGI [27]: 24.2 µM
TGI [55]: 18.2 µM
TGI [29]: > 100 µM
TGI [30]: > 74.7 µM
TGI [31]: 21.1 µM
TGI [32]: 31.5 µM
TGI [33]: 17 µM
TGI [56]: 26.1 µM
TGI [34]: 40 µM
TGI [35]: 16.1 µM
TGI [36]: 27.7 µM
TGI [37]: 9.85 µM
TGI [38]: 15.7 µM
TGI [57]: > 54.3 µM
TGI [40]: 15.2 µM
TGI [41]: 19.1 µM
TGI [42]: > 100 µM
TGI [43]: 46.5 µM
TGI [44]: 23.1 µM
TGI [45]: 47.3 µM
TGI [46]: > 42.7 µM
TGI [47]: > 70.2 µM
TGI [48]: > 56.8 µM
TGI [49]: > 56.8 µM
TGI [50]: > 62.9 µM
TGI [51]: 7.65 µM
TGI [52]: 23.3 µM
TGI [53]: 55.1 µM
TGI [58]: > 68.1 µM
TGI [54]: 1.89 µM
